Data reported in patent publication US9562899B2, “Method of detecting OXA-048 carbapenemase producing bacteria” (BIOMÉRIEUX, priority 2012, dated 2017).
Read-outs that look alike come from different tables or passages of the source.

Legend:
Type in all cases: cell-based, Enterobacteriaceae
Conditions in all cases: Ex 2, MIC in mg/l
AmpC strains = test: Temocillin MIC with EDTA in the medium (Example 2)
Excerpt: (§1) Optimization of the Detection Specificity by Introducing Specific Inhibitors Inhibition of Class B Strains (NDM, VIM, IMP) by Adding EDTA
(§2) Identical to that used to determine the temocillin MICs by agar dilution (example 1).
(§3) For each temocillin concentration, the following concentrations of active EDTA will be tested in the form of disodium EDTA: 0, 1.77, 2.12, 2.47 and 2.83 mmol/l.
(§4) Method: identical to the method used in example 1.

[1] = system: strains with impermeability-mediated resistance (IR)
Excerpt: as §1, §2, §3, §4

NDM-1 strains = system: NDM-1 strains
Excerpt: as §1, §2, §3, §4

CO[C@@]1(NC(=O)C(C(=O)O)c2ccsc2)C(=O)N2[C@@H](C(=O)O)C(C)(C)S[C@@H]21 (stereo partly shown) [temocillin]
No. of AmpC strains with MIC 150 (AmpC strains; 0 mmol/l of EDTA): 0 | No. of AmpC strains with MIC 200 (AmpC strains; 0 mmol/l of EDTA): 0 | No. of AmpC strains with MIC 300 (AmpC strains; 0 mmol/l of EDTA): 0 | No. of AmpC strains with MIC >300 (AmpC strains; 0 mmol/l of EDTA): 0 | No. of AmpC strains with MIC ≦50 (AmpC strains; 0 mmol/l of EDTA): 10 | No. of AmpC strains with MIC 150 (AmpC strains; 1.77 mmol/l of active EDTA): 1 | No. of AmpC strains with MIC 200 (AmpC strains; 1.77 mmol/l of active EDTA): 0 | No. of AmpC strains with MIC 300 (AmpC strains; 1.77 mmol/l of active EDTA): 0 | No. of AmpC strains with MIC >300 (AmpC strains; 1.77 mmol/l of active EDTA): 0 | No. of AmpC strains with MIC ≦50 (AmpC strains; 1.77 mmol/l of active EDTA): 9 | No. of AmpC strains with MIC 150 (AmpC strains; 2.12 mmol/l of active EDTA): 1 | No. of AmpC strains with MIC 200 (AmpC strains; 2.12 mmol/l of active EDTA): 0 | No. of AmpC strains with MIC 300 (AmpC strains; 2.12 mmol/l of active EDTA): 0 | No. of AmpC strains with MIC >300 (AmpC strains; 2.12 mmol/l of active EDTA): 0 | No. of AmpC strains with MIC ≦50 (AmpC strains; 2.12 mmol/l of active EDTA): 9 | No. of AmpC strains with MIC 150 (AmpC strains; 2.47 mmol/l of active EDTA): 0 | No. of AmpC strains with MIC 200 (AmpC strains; 2.47 mmol/l of active EDTA): 0 | No. of AmpC strains with MIC 300 (AmpC strains; 2.47 mmol/l of active EDTA): 0 | No. of AmpC strains with MIC >300 (AmpC strains; 2.47 mmol/l of active EDTA): 0 | No. of AmpC strains with MIC ≦50 (AmpC strains; 2.47 mmol/l of active EDTA): 10 | No. of AmpC strains with MIC 150 (AmpC strains; 2.83 mmol/l of active EDTA): 0 | No. of AmpC strains with MIC 200 (AmpC strains; 2.83 mmol/l of active EDTA): 0 | No. of AmpC strains with MIC 300 (AmpC strains; 2.83 mmol/l of active EDTA): 0 | No. of AmpC strains with MIC >300 (AmpC strains; 2.83 mmol/l of active EDTA): 0 | No. of AmpC strains with MIC ≦50 (AmpC strains; 2.83 mmol/l of active EDTA): 10 | No. of IR strains with MIC 150 ([1]; 0 mmol/l of EDTA): 2 | No. of IR strains with MIC 200 ([1]; 0 mmol/l of EDTA): 0 | No. of IR strains with MIC 300 ([1]; 0 mmol/l of EDTA): 0 | No. of IR strains with MIC >300 ([1]; 0 mmol/l of EDTA): 0 | No. of IR strains with MIC ≦50 ([1]; 0 mmol/l of EDTA): 8 | No. of IR strains with MIC 150 ([1]; 1.77 mmol/l of active EDTA): 4 | No. of IR strains with MIC 200 ([1]; 1.77 mmol/l of active EDTA): 1 | No. of IR strains with MIC 300 ([1]; 1.77 mmol/l of active EDTA): 1 | No. of IR strains with MIC >300 ([1]; 1.77 mmol/l of active EDTA): 0 | No. of IR strains with MIC ≦50 ([1]; 1.77 mmol/l of active EDTA): 4 | No. of IR strains with MIC 150 ([1]; 2.12 mmol/l of active EDTA): 3 | No. of IR strains with MIC 200 ([1]; 2.12 mmol/l of active EDTA): 2 | No. of IR strains with MIC 300 ([1]; 2.12 mmol/l of active EDTA): 1 | No. of IR strains with MIC >300 ([1]; 2.12 mmol/l of active EDTA): 0 | No. of IR strains with MIC ≦50 ([1]; 2.12 mmol/l of active EDTA): 4 | No. of IR strains with MIC 150 ([1]; 2.47 mmol/l of active EDTA): 2 | No. of IR strains with MIC 200 ([1]; 2.47 mmol/l of active EDTA): 2 | No. of IR strains with MIC 300 ([1]; 2.47 mmol/l of active EDTA): 0 | No. of IR strains with MIC >300 ([1]; 2.47 mmol/l of active EDTA): 0 | No. of IR strains with MIC ≦50 ([1]; 2.47 mmol/l of active EDTA): 6 | No. of IR strains with MIC 150 ([1]; 2.83 mmol/l of active EDTA): 3 | No. of IR strains with MIC 200 ([1]; 2.83 mmol/l of active EDTA): 1 | No. of IR strains with MIC 300 ([1]; 2.83 mmol/l of active EDTA): 0 | No. of IR strains with MIC >300 ([1]; 2.83 mmol/l of active EDTA): 0 | No. of IR strains with MIC ≦50 ([1]; 2.83 mmol/l of active EDTA): 6 | No. of NDM-1 strains with MIC 150 (NDM-1 strains; 0 mmol/l of EDTA): 4 | No. of NDM-1 strains with MIC 200 (NDM-1 strains; 0 mmol/l of EDTA): 1 | No. of NDM-1 strains with MIC 300 (NDM-1 strains; 0 mmol/l of EDTA): 0 | No. of NDM-1 strains with MIC >300 (NDM-1 strains; 0 mmol/l of EDTA): 0 | No. of NDM-1 strains with MIC ≦50 (NDM-1 strains; 0 mmol/l of EDTA): 22 | No. of NDM-1 strains with MIC 150 (NDM-1 strains; 1.77 mmol/l of active EDTA): 2 | No. of NDM-1 strains with MIC 200 (NDM-1 strains; 1.77 mmol/l of active EDTA): 0 | No. of NDM-1 strains with MIC 300 (NDM-1 strains; 1.77 mmol/l of active EDTA): 0 | No. of NDM-1 strains with MIC >300 (NDM-1 strains; 1.77 mmol/l of active EDTA): 0 | No. of NDM-1 strains with MIC ≦50 (NDM-1 strains; 1.77 mmol/l of active EDTA): 25 | No. of NDM-1 strains with MIC 150 (NDM-1 strains; 2.12 mmol/l of active EDTA): 1
